The target in assay [1] is ROS1 (Homo sapiens (Human), UniProt P08922). Put plainly: Radio-tagged HotSpot kinase assay, ROS1. Type of assay: biochemical. As for the experimental part:
(§1) Inhibition of protein kinase activity by compounds was carried out on the Radio-tagged HotSpot kinase experimental platform of Reaction Biology Corporation. Fresh reaction solution (20 mM TIEPESpH 7.5, 10 mM MgCl2, 1 mM EGTA, 0.02% Brij35, 0.02 mg/ml BSA, 0.1 mM Na3VO4, 2 mM DTT, […]) containing corresponding substrates was prepared, cofactor and kinase to be tested were added into the above solution and mixed gently. Echo550 pipetting system was used to add the test compound DMSO solution to each well (the blank control group was added with the corresponding volume of DMSO), then 33P-ATP (with a final specific activity of 0.01 μCi/μL) was added to start the reaction. The reaction solution was incubated at room temperature for 120 minutes. Transferred the incubated reaction solution to P81 ion exchange chromatographic paper (Whatman #3698-915), eluted with […] phosphoric acid solution, and the amount of radioactive phosphorylated substrate remaining on the chromatographic paper was detected.

The target of assay [2] is TRKA (Homo sapiens (Human), UniProt P04629). Put plainly: Radio-tagged HotSpot kinase assay, TRKA. Type of assay: biochemical. The protocol:
as §1

The subject of assay [3] is Ba/F3-CD74-ROS1-G2032R cells. Put plainly: In vivo efficacy study, subcutaneous Ba/F3-CD74-ROS1-G2032R tumor. More on the design: species or system BALB/c nude mice. The settings on record: 20 mg/kg P.O. BID × 2 weeks. As for the experimental part:
Cell culture: Ba/F3-CD74-ROS1-G2032R cell line was cultured with 1640 medium (Biological Industries)+10% fetal bovine serum (BI)+1% double antibody (Penicillin Streptomycin solution, Corning, USA) at 37° C. with 5% CO2. Two passages were performed for one week. When the cell saturation was 80%-90% and the number reached the required level, the cells were collected, counted and inoculated.
Animals: BALB/c nude mice, female, 6-8 weeks of age, weighing 15-20 g. A total of 6 mice were required, provided by Beijing Vital River Laboratory Animal Technology Co., Ltd.
Tumor inoculation: 0.2 ml (2×10^6) Ba/F3-CD74-ROS1-G2032R cells (plus stromal gel, volume ratio 1:1) were inoculated subcutaneously on the right posterior dorsum of each mouse, and group dosing was started when the average tumor volume reached about 150-200 mm^3.
Experimental index: Tumor volume and body weight were measured twice a week. Tumor volume was measured by vernier calipers with the formula TV=0.5 a×b2, wherein a is the long diameter of the tumor and b is the short diameter of the tumor.

Assay [4] concerns the target ALK (Homo sapiens (Human), UniProt Q9UM73). The assay is described as follows: Radio-tagged HotSpot kinase assay, ALK. Type of assay: biochemical. As for the experimental part:
as §1

Assay [5] concerns the target ALK (G1202R) (Homo sapiens (Human), UniProt Q9UM73, G1202R). Put plainly: Radio-tagged HotSpot kinase assay, ALK (G1202R). Type of assay: biochemical. The protocol: as §1
Assay [6] deals with ROS1 (G2032R) (Homo sapiens (Human), UniProt P08922, G2032R). Put plainly: Radio-tagged HotSpot kinase assay, ROS1 (G2032R). Type of assay: biochemical. As for the experimental part:
as §1

Assay [7] deals with TRKA (G677C) (Homo sapiens, UniProt P04629, G667C). The assay is described as follows: Radio-tagged HotSpot kinase assay, TRKA (G677C). Type of assay: biochemical. The protocol: as §1
Chain of TRKA (G677C) (P04629 33-796 G667C limits assumed): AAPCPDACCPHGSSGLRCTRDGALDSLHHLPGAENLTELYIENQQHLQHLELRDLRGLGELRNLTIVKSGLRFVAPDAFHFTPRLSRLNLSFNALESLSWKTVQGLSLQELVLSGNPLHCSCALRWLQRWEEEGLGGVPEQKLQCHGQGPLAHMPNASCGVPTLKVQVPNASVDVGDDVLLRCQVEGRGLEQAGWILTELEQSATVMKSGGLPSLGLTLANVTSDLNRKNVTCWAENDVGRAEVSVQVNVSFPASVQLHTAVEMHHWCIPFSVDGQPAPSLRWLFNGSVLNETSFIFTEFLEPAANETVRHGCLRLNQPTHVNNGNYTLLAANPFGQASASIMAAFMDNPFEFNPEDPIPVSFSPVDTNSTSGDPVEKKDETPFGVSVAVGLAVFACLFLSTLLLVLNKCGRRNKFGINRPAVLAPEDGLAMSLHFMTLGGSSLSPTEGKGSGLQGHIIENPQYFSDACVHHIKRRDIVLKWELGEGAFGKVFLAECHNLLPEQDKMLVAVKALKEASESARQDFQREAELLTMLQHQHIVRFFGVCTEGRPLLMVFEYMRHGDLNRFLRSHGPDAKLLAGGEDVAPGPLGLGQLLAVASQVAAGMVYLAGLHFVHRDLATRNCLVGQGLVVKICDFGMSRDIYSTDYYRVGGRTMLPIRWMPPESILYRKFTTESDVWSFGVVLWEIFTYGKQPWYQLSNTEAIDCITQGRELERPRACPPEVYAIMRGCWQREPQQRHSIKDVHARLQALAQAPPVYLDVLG
The subject of assay [8] is Ba/F3-CD74-ROS1-G2032R. Put plainly: Inhibition of cell proliferation (CellTiter-Glo), Ba/F3-CD74-ROS1-G2032R. Type of assay: cell-based. The settings on record: 72 hours. As for the experimental part:
(§2) The experiment of inhibiting cell proliferation by compounds was carried out in Hefei Zhongkeprecedo Biomedical Technology Co., Ltd. The Ba/F3 engineered cell line stably transfected with different kinase genes was recovered with RPMI 1640 medium (Biological Industries, Israel)+10% fetal bovine serum (Biological Industries, Israel)+1% double antibody (Penicillin Streptomycin solution, Coring, USA) and cultivated two generations. The logarithmic growth phase cell suspension was taken, and 2000 cells/well were inoculated on 96-well white cell culture plate (Corning 3917, NY, USA) with a volume of 95 μL per well. 5 μL of 20×DMSO solution of the compound to be tested was added into the culture plate containing 95 μL of cell suspension. The blank control group was added with corresponding volume of DMSO, mixed well, and incubated in a 5% CO2 incubator at 37° C. for 72 hours. CellTiter-Glo was used to detect cell viability.
On the technique in general: ATP-based viability assays read luminescence as a measure of living cells.

Assay [9] deals with Ba/F3-LMNA-NTRK1-G595R. The assay is described as follows: Inhibition of cell proliferation (CellTiter-Glo), Ba/F3-LMNA-NTRK1-G595R. Type of assay: cell-based. The settings on record: 72 hours. The protocol:
as §2

Assay [10] has as its system Ba/F3-TEL-ALK-G1202R. The assay is described as follows: Inhibition of cell proliferation (CellTiter-Glo), Ba/F3-TEL-ALK-G1202R. Type of assay: cell-based. To be noted: 72 hours. The protocol: as §2
[11] abbreviates: read-out: TRKA (G677C) (IC50/nM).

Like-named read-outs stand apart in the source and are kept apart here.

Chain of ROS1 (P08922 28-2347): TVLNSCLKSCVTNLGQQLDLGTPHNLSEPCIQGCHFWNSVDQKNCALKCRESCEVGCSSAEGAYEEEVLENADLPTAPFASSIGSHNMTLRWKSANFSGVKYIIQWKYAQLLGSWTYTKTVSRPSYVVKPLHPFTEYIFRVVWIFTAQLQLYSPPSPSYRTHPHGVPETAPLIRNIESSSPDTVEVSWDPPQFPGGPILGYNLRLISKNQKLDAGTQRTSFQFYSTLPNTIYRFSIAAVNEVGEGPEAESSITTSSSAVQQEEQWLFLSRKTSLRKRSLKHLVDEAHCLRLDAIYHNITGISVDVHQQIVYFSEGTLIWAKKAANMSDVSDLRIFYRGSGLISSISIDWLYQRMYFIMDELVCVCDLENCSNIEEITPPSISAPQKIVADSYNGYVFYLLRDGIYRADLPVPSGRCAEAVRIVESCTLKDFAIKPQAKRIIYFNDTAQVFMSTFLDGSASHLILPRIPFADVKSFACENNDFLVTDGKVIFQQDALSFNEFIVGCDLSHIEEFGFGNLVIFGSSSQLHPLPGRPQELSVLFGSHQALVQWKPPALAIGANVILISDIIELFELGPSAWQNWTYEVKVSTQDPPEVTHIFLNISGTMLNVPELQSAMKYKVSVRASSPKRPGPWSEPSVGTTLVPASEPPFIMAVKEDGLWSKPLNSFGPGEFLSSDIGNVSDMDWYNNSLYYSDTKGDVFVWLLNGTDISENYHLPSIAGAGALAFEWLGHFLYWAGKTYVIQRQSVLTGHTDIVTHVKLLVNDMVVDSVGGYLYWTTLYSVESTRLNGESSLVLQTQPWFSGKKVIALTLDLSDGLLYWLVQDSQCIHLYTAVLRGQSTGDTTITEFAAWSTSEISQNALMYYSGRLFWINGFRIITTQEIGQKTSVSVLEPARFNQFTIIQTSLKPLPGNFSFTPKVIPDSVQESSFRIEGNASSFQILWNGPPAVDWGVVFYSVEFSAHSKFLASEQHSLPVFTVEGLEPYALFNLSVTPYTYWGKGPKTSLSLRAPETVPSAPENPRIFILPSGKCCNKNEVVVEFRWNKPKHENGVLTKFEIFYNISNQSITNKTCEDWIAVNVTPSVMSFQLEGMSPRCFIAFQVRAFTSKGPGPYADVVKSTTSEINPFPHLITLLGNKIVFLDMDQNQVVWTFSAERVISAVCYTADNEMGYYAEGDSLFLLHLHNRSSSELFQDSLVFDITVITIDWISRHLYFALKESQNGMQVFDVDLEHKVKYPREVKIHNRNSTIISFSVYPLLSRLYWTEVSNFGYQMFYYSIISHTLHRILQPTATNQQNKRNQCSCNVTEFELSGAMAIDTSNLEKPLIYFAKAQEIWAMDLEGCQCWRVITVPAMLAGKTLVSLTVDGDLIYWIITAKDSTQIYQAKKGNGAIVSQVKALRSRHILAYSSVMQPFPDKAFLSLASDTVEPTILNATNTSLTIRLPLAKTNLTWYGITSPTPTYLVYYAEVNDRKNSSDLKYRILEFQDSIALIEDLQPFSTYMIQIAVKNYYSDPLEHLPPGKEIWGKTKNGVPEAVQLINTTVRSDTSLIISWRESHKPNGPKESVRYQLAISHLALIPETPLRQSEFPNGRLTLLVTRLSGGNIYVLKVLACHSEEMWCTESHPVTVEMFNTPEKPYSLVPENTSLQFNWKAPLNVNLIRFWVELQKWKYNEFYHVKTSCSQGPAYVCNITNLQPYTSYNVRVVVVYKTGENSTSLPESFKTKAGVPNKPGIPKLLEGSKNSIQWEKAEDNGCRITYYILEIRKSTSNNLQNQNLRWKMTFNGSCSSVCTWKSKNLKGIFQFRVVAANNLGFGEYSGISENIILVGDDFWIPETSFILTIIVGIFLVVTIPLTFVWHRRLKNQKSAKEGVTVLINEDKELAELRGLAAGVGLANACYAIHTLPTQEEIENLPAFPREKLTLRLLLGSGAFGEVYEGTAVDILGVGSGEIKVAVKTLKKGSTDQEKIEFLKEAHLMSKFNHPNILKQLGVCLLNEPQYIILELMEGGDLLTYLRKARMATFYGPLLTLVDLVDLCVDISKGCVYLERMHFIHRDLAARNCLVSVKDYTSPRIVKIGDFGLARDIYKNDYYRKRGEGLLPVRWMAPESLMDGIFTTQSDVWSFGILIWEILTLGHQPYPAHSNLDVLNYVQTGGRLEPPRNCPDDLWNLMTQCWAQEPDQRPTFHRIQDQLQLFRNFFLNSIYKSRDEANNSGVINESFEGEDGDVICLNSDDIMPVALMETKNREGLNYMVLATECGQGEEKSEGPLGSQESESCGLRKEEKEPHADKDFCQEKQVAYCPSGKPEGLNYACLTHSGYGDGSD
Chain of TRKA (P04629 33-796): as the sequence (P04629 33-796 G667C limits assumed) above, with C635G counted along it
Chain of ALK (Q9UM73 19-1620): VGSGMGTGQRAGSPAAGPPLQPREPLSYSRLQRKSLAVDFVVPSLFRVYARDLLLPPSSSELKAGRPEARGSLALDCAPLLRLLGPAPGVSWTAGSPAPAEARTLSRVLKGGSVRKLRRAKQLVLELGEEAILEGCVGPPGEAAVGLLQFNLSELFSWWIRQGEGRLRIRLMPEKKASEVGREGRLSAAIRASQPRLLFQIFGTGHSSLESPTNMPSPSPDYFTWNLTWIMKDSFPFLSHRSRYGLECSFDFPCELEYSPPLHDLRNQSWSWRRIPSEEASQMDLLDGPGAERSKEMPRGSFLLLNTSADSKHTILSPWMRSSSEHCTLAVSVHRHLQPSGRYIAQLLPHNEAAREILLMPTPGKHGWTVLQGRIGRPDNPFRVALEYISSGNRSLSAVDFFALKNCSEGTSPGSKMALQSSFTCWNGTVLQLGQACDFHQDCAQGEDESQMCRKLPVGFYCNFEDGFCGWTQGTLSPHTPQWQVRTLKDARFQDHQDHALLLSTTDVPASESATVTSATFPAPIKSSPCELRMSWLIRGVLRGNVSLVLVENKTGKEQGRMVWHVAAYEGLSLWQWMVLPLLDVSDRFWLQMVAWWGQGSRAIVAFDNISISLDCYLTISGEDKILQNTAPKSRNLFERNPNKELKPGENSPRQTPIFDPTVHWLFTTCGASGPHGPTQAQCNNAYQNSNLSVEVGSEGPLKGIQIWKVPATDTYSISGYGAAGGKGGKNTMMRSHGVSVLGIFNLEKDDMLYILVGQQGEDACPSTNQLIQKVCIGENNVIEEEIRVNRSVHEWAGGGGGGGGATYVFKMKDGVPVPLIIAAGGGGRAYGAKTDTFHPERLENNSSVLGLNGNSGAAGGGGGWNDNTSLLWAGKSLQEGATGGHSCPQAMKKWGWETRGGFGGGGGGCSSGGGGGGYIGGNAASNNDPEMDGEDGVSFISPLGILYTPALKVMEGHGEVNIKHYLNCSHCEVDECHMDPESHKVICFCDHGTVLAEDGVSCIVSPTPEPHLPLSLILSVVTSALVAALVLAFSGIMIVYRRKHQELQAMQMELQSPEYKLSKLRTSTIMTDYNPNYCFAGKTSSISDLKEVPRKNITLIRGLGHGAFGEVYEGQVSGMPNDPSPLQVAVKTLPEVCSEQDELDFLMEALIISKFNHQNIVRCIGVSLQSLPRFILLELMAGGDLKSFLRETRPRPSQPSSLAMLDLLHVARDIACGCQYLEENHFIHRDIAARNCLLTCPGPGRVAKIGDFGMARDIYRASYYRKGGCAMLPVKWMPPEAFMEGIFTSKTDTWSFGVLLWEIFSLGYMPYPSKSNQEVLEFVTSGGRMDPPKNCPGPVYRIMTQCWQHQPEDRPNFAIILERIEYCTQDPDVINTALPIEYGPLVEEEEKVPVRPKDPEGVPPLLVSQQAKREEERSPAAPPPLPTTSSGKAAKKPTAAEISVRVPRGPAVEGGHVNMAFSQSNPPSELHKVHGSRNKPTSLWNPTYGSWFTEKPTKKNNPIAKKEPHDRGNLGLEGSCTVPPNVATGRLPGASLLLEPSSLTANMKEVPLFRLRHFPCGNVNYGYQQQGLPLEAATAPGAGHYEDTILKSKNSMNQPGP
Chain of ROS1 (G2032R) (P08922 28-2347 G2032R): as the sequence (P08922 28-2347) above, with G2005R counted along it
Chain of ALK (G1202R) (Q9UM73 19-1620 G1202R): as the sequence (Q9UM73 19-1620) above, with G1184R counted along it

Turning to `C[C@@H](Nc1ccn2ncc(C3=NOCC(C)(C)N3)c2n1)c1cc(F)cc(F)c1F` [Example 4], the IC50 in assay [1] was below 0.5 nM; in [2], below 0.5 nM; in assay [4], 0.5 to 5 nM; in [5], 5 to 50 nM; in assay [6], 0.5 to 5 nM; in [7] (setting [11]), 0.5 to 5 nM. The “Tumor Volume” value in assay [3] (0 days) worked out at 167.31 mm^3; in assay [3] (4 days), 216.42 mm^3; in assay [3] (7 days) it was 292.24 mm^3; in [3] (11 days), 375.67 mm^3; in assay [3] (14 days), 688.91 mm^3.

Regarding `C[C@@H](Nc1ccn2ncc(C3=NC(=O)C(C)(C)N3)c2n1)c1cc(F)ccc1OC(F)F` [Example 6], the IC50 in assay [1] is below 0.5 nM; in assay [8], 24.1 nM; in [9] it was 13.4 nM; in assay [10], 110 nM; in [2] it was below 0.5 nM; in assay [4], 0.5 to 5 nM. The IC50 in assay [5] is 5 to 50 nM; in assay [6], below 0.5 nM; in assay [7] (setting [11]), below 0.5 nM.

As to `COc1ccc(F)cc1[C@@H](C)Nc1ccn2ncc(C3=NC(=O)C(C)(C)N3)c2n1` [Example 7], the IC50 is below 0.5 nM in [1]; 54.6 nM in [8]; 36.1 nM in assay [9]; below 0.5 nM in assay [2]; 0.5 to 5 nM in [4]; 5 to 50 nM in assay [5]. Further, the IC50 in assay [6] and in [7] (setting [11]) was below 0.5 nM throughout.

Turning to `C[C@@H](Nc1ccn2ncc(C3=NOCCN3)c2n1)c1cc(F)ccc1OC(F)F` [Example 9], the IC50 was below 0.5 nM in assay [1]; 31.6 nM in assay [8]; 6.1 nM in [9]; 75.6 nM in [10]; below 0.5 nM in assay [2]; 0.5 to 5 nM in [4]. The IC50 in assay [5] was 5 to 50 nM; in assay [6], below 0.5 nM; in [7] (setting [11]) it was below 0.5 nM.

Take `C[C@@H](Nc1ccn2ncc(C3=NOCCN3)c2n1)c1cc(F)ccc1OC(F)(F)F` [Example 26]: the IC50 in assay [1] is below 0.5 nM; in assay [8] it was 35.2 nM; in assay [9], 11.2 nM; in [10] it was 100 nM; in assay [2], below 0.5 nM; in [4] it was 0.5 to 5 nM. In addition, the IC50 in assay [5] lay in the range of 5 to 50 nM; in [6], 0.5 to 5 nM; in assay [7], 0.5 to 5 nM.

These data come from US20240025908A1, “COMPOUND USED AS KINASE INHIBITOR AND USE THEREOF” (TYK MEDICINES, INC., priority 2020, published 2024).
